Results as given in PMC9224258, “Zinc Coordination Compounds with Benzimidazole Derivatives: Synthesis, Structure, Antimicrobial Activity and Potential Anticancer Application” (International Journal of Molecular Sciences, 2022).
Values after ≈ are worked out from the molar mass of the structure shown. Read-outs that look alike come from different tables or passages of the source.

Assays:
[1] = tested on: S. aureus ATCC 25923; assay: micro-dilution broth MIC; format: cell-based, Staphylococcus aureus; settings: Staphylococcus aureus, ATCC25923
Method: (§1) The cytotoxic effect of the compounds was evaluated using glioblastoma (T98G), neuroblastoma (SK-N-AS) and lung adenocarcinoma (A549) cell lines and human normal skin fibroblasts (CCD-1059Sk). T98G and SK-N-AS cells were cultured in DMEM, high glucose; A549 cells were cultured in DMEM/F12; and CCD-1059Sk cells were cultured in MEM. All media were supplemented with 10% FBS, 100 U/mL of penicillin and […] of streptomycin (PenStrep). Cells were incubated at 37 °C in a humidified atmosphere of 5% CO2. Stock solutions were prepared by dissolving the compounds in sterile dimethyl sulfoxide (DMSO) to obtain the concentration of 50 mg/mL. The cells were seeded into 96-well sterile plates (Nunc) at a density of 1 × 10^5 cells/mL. After 24 h of incubation, the medium was removed from each well, and then cells were incubated for the next 24 h with different concentrations of the tested compounds (1–100 µg/mL) in respective medium containing 2% FBS. Cytotoxicity of the compounds was evaluated using the MTT assay, which is based on the conversion of 3-(4,5-dimethylthiazol-2-yl)-2,5-diphenyltetrazolium bromide (MTT) into dark-blue formazan crystals. Briefly, after 24 h incubation of cells with varying concentrations of the tested compounds, all culture media were removed from the plates. Cells were washed with PBS, and then 100 µL of medium containing 10% MTT solution (5 mg/mL) was added to each well. After 3 h incubation, 100 µL (per well) of 10% SDS buffer solution was added to solubilize formazan crystals. After overnight incubation, the absorbance was measured at 570 nm using a microplate reader (Epoch, BioTek Instruments). Experiments were repeated twice, and the measurements in each experiment were run in triplicate. The viability of the investigated cells was expressed as a percentage of the viability of the untreated cells, and the results were transformed into IC50 values (expressed as mean ± SD). […] The complexes were screened for antibacterial and antifungal activities by micro-dilution broth method using Mueller–Hinton broth for growth of bacteria or Mueller–Hinton broth with 2% glucose for growth of fungi. Minimal inhibitory concentrations (MICs) of the tested derivatives were evaluated for the panel of the reference microorganisms from the American Type Culture Collection (ATCC), including Gram-negative bacteria (Escherichia coli ATCC 25922, Salmonella Typhimurium ATCC14028, Klebsiella pneumoniae ATCC 13883, Pseudomonas aeruginosa ATCC 9027, Proteus mirabilis ATCC 12453), Gram-positive bacteria (Staphylococcus aureus ATCC 25923, Staphylococcus epidermidis ATCC 12228, Micrococcus luteus ATCC 10240, Enterococcus faecalis ATCC 29212, Bacillus subtilis ATCC 6633, Bacillus cereus ATCC 10876) and fungi (Candida albicans ATCC 10231, Candida parapsilosis ATCC 22019, C. glabrata ATCC 90030).

[2] = tested on: S. epidermidis ATCC 12228; assay: micro-dilution broth MIC; format: cell-based, Staphylococcus epidermidis; settings: Staphylococcus epidermidis, ATCC12228
Method: as §1

[3] = tested on: M. luteus ATCC 10240; assay: micro-dilution broth MIC; format: cell-based, Micrococcus luteus; settings: Micrococcus luteus, ATCC10240
Method: as §1

[4] = tested on: E. faecalis ATCC 29212; assay: micro-dilution broth MIC; format: cell-based, Enterococcus faecalis; settings: Enterococcus faecalis, ATCC29212
Method: as §1

[5] = tested on: B. subtilis ATCC 6633; assay: micro-dilution broth MIC; format: cell-based, Bacillus subtilis; settings: Bacillus subtilis, ATCC6633
Method: as §1

[6] = tested on: B. cereus ATCC 10876; assay: micro-dilution broth MIC; format: cell-based, Bacillus cereus; settings: Bacillus cereus, ATCC10876
Method: as §1

[7] = tested on: glioblastoma (T98G) cell line; assay: MTT cytotoxicity assay, T98G; format: cell-based; settings: Homo sapiens, T98G; MTT assay after 24 h incubation; read-out: IC50 ± SD, T98G
Method: as §1

[8] = tested on: neuroblastoma (SK-N-AS) cell line; assay: MTT cytotoxicity assay, SK-N-AS; format: cell-based, human; settings: Homo sapiens, SK-N-AS; MTT assay after 24 h incubation; read-out: IC50 ± SD, SK-N-AS
Method: as §1

[9] = tested on: lung adenocarcinoma (A549) cell line; assay: MTT cytotoxicity assay, A549; format: cell-based, human; settings: Homo sapiens, A549; MTT assay after 24 h incubation; read-out: IC50 ± SD, A549
Method: as §1

[10] = tested on: human normal skin fibroblasts (CCD-1059Sk); assay: MTT cytotoxicity assay, normal fibroblasts; format: cell-based; settings: Homo sapiens, CCD-1059Sk; MTT assay after 24 h incubation; normal cells; read-out: IC50 ± SD, CCD-1059-Sk
Method: as §1

[11] = tested on: lung adenocarcinoma (A549) cell line; design: method as in earlier work; settings: incubated for 24 h with A549 cells; ref 77 (Zhang F. et al.); cited from earlier work
[12] = tested on: S. typhimurium ATCC 14028; assay: micro-dilution broth MIC; format: cell-based, Salmonella Typhimurium; settings: Salmonella enterica, Gram-negative, read-out: MIC
Method: as §1

[13] = tested on: E. coli ATCC 25922; assay: micro-dilution broth MIC; format: cell-based, Escherichia coli; settings: Escherichia coli, ATCC25922, Gram-negative, read-out: MIC
Method: as §1

[14] = tested on: P. mirabilis ATCC 12453; assay: micro-dilution broth MIC; format: cell-based, Proteus mirabilis; settings: Proteus mirabilis, ATCC12453, Gram-negative, read-out: MIC
Method: as §1

[15] = tested on: K. pneumoniae ATCC 13883; assay: micro-dilution broth MIC; format: cell-based, Klebsiella pneumoniae; settings: Klebsiella pneumoniae, ATCC13883, Gram-negative, read-out: MIC
Method: as §1

[16] = tested on: P. aeruginosa ATCC 9027; assay: micro-dilution broth MIC; format: cell-based, Pseudomonas aeruginosa; settings: Pseudomonas aeruginosa, ATCC9027, Gram-negative, read-out: MIC
Method: as §1

[17] = tested on: C. glabrata ATCC 2091; assay: micro-dilution broth MIC; format: cell-based; settings: Nakaseomyces glabratus, ATCC2091, yeast, read-out: MIC
[18] = tested on: C. albicans ATCC 102231; assay: micro-dilution broth MIC; format: cell-based, Candida albicans; settings: Candida albicans, ATCC102231, yeast, read-out: MIC
Method: as §1

[19] = tested on: C. parapsilosis ATCC 22019; assay: micro-dilution broth MIC; format: cell-based, Candida parapsilosis; settings: Lodderomyces parapsilosis, ATCC22019, yeast, read-out: MIC
Method: as §1

CN[C@H](CC(C)C)C(=O)N[C@H]1C(=O)N[C@@H](CC(N)=O)C(=O)N[C@H]2C(=O)N[C@H]3C(=O)N[C@H](C(=O)N[C@H](C(=O)O)c4cc(O)cc(O)c4-c4cc3ccc4O)[C@H](O)c3ccc(c(Cl)c3)Oc3cc2cc(c3O[C@@H]2O[C@H](CO)[C@@H](O)[C@H](O)[C@H]2O[C@H]2C[C@](C)(N)[C@H](O)[C@H](C)O2)Oc2ccc(cc2Cl)[C@H]1O [Van, Vancomycin, reference compound]
MIC [1]: 0.98 µg/mL (≈ 0.676 µM) | MIC [2]: 0.98 µg/mL (≈ 0.676 µM) | MIC [3]: 0.12 µg/mL (≈ 0.0828 µM) | MIC [4]: 1.95 µg/mL (≈ 1.35 µM) | MIC [5]: 0.24 µg/mL (≈ 0.166 µM) | MIC [6]: 0.98 µg/mL (≈ 0.676 µM)

COc1cc([C@@H]2c3cc4c(cc3[C@@H](O[C@@H]3O[C@@H]5CO[C@@H](C)O[C@H]5[C@H](O)[C@H]3O)[C@H]3COC(=O)[C@H]23)OCO4)cc(OC)c1O [Etoposide, reference compound]
IC50 [7]: > 100 µg/mL | IC50 [8]: 67.8 ± 2.03 µg/mL (≈ 115 µM) | IC50 [9]: > 100 µg/mL | IC50 [10]: > 100 µg/mL | median inhibitory concentration (IC50), A549 [11]: 115 µg/mL

O=C(O)c1cn(C2CC2)c2cc(N3CCNCC3)c(F)cc2c1=O [Cip, ciprofloxacin, reference compound]
MIC [12]: 0.061 µg/mL (≈ 0.184 µM) | MIC [13]: 0.015 µg/mL (≈ 0.0453 µM) | MIC [14]: 0.03 µg/mL (≈ 0.0905 µM) | MIC [15]: 0.12 µg/mL (≈ 0.362 µM) | MIC [16]: 0.49 µg/mL (≈ 1.48 µM)

Brc1cnc2[nH]c(-c3cccnc3)nc2c1 [Complex L4]
IC50 [7]: > 100 µg/mL | IC50 [8]: > 100 µg/mL | IC50 [9]: > 100 µg/mL | IC50 [10]: > 100 µg/mL | MIC ([1]; S. aureus ATCC 25923, Gram-positive, read-out: MIC): > 1000 µg/mL | MIC ([2]; S. epidermidis ATCC 12228, Gram-positive, read-out: MIC): 1000 µg/mL | MIC ([3]; M. luteus ATCC 10240, Gram-positive, read-out: MIC): > 1000 µg/mL | MIC ([4]; E. faecalis ATCC 29212, Gram-positive, read-out: MIC): 1000 µg/mL | MIC ([5]; B. subtilis ATCC 6633, Gram-positive, read-out: MIC): 1000 µg/mL | MIC ([6]; B. cereus ATCC 10876, Gram-positive, read-out: MIC): 1000 µg/mL | MIC [12]: > 1000 µg/mL | MIC [13]: > 1000 µg/mL | MIC [14]: > 1000 µg/mL | MIC [15]: > 1000 µg/mL | MIC [16]: > 1000 µg/mL | MIC [17]: > 1000 µg/mL | MIC [18]: 500 µg/mL | MIC [19]: 1000 µg/mL
